In patent publication US5620975A, “Pharmaceutical composition and method for the control of hypertension” (Hoffmann-La Roche Inc., priority 1991, dated 1997):
Structures can show the parent of a compound that is named as a salt.

Experiments:
[1] = system: conscious dogs having renal hypertension; assay: Blood pressure (MAP, telemetry) in conscious dogs having renal hypertension; assay type: in vivo, dog (German sheepdogs); conditions: FIG. 1, conscious renal hypertensive dogs
Procedure: The antihypertensive effect of the combination was investigated in conscious dogs having renal hypertension. The hypertension was produced in German sheepdogs (weight 23-30 kg) using known methods in which one kidney is wrapped with cellophane and a stenosis is formed in the renal artery of the contralateral kidney using an occluder. The blood pressure was measured with a catheter implanted in the abdominal aorta and connected to a transmitter in the abdominal, cavity (telemetry). FIG. 1 illustrates the effect of cilazapril (10 mg/kg per os) and Compound A (30 mg/kg per os) alone, as well as, the effect of the simultaneous administration of the same dosages of the two substances (n=3 dogs for cilazapril and the combination, n=4 dogs for Compound A).

[2] = system: media of the right carotid artery; assay: Cross-section surface (area) of the media of the carotid artery in rats after 15 days of treatment; assay type: in vivo, rat (male, strain RoRo); conditions: rat carotid artery; for area of the media: cilazapril 10 mg/kg daily in feed, Compound A 30 mg/kg by probang, control 89000±5000 μm^2, combination p<0.05 (Student t-test); for effect of individual treatment on media area: result in words
Procedure: The influence of the individual compounds and their combination on the blood vessels was investigated in rats. Male rats, strain: RoRo (weight about 400 g; aged 4-5 months; Institut fur Biologisch-Medizinische Forschung, Fullinsdorf, CH) were used. The animals were divided randomly into a control group and into treatment groups. The duration of the treatment was 15 days. Cilazapril was admixed with the feed in an amount such that the daily intake was on average 10 mg/kg and Compound A (30 mg/kg) was administered using a probang. The control animals received the same laboratory feed without additive.
After 15 days, the rats were anaesthetized with ether and the carotid artery was fixed by perfusion with fixative agent (2.5% glutaraldehyde in 0.1M phosphate buffer, pH 7.4). For this, a probe was passed through the left ventricle of the heart into the ascending aorta (inflow) and a second probe was pushed through the right ventricle into the auricle (discharge).The vascular system was firstly rinsed with 10 ml of buffered isotonic NaCl solution and then fixed for 15 minutes with fixative at a pressure of 11.7 kPa. Subsequently, the right carotid artery was dissected, freed from adhering tissue and placed in 2.5% glutaraldehyde for further fixation. Each artery was divided into five vascular segments from the distal end to the proximal end, dehydrated and embedded in EPON 12 (Registered Mark of Shell A.G.). The middle segment was used for the morphological investigations. Semi-thin cross-sections (1 μm thick) were colored with toluidine blue and basic fuchsin. The cross-section surface of the media was measured with the morphometry system DIASYS (Datalab, Heinz Meyer, CH-3367 Thorigen).

Bioavailability = conditions: in vivo

SMILES | effect on blood pressure (MAP) ([1]; cilazapril 10 mg/kg per os, Compound A 30 mg/kg per os, alone or simultaneously, result in words) | area of the media [2] [μm^2] | effect of individual treatment on media area [2] | bioavailability (Bioavailability) [%] | lowering of blood pressure (MAP) ([1]; Compound A 30 mg/kg per os alone, n=4)
CCOC(=O)[C@H](CCc1ccccc1)N[C@H]1CCCN2CCC[C@@H](C(=O)O)N2C1=O [cilazapril, 9(S)-[1(S)-ethoxycarbonyl-3-phenylpropylamino]octahydro-10-oxo-6H-pyridazo[1,2-a][1,2]diazepine-1(S)-carboxylic acid] | without effect | 84000±11000 | without effect | 70 | –
COCC(=O)OC1(CCN(C)CCCc2nc3ccccc3[nH]2)CCc2cc(F)ccc2C1C(C)C (centres unmarked) [Compound A, [1S,2S]-2-[2-[[3-(2-benzimidazolyl)propyl]methylamino]ethyl]-6-fluoro-1,2,3,4-tetrahydro-1-isopropyl-2-naphthylmethoxyacetate dihydrochloride] | – | 87000±4000 | without effect | 80 to 100 | 10-20 mmHg
